Experimental data published in patent US20210277441A1, “METHOD OF SELECTING A POLYPEPTIDE OF INTEREST” (IMPERIAL COLLEGE INNOVATIONS LIMITED, priority 2018, published 2021).

Tests used:
[1] = target: Enterobacter cloacae nitroreductase (EntNFSB) variant EntNFSB-s2, T41L/Y68L/F124L, SEQ ID NO: 40 (Enterobacter cloacae, UniProt Q01234, F124L/T41L/Y68L); assay type: biochemical; details: cofactor NADH; enzyme 1 uM
[2] = target: Enterobacter cloacae nitroreductase (EntNFSB) variant EntNFSB-s1, S40A/T41I/F124A, SEQ ID NO: 38 (Enterobacter cloacae, UniProt Q01234, F124A/S40A/T41I); test: Kinetics of evolved EntNFSB-s1, 2-nitrobenzoic acid reduction with NADH; details: cofactor NADH; enzyme 1 uM
Chain of Enterobacter cloacae nitroreductase (EntNFSB) variant EntNFSB-s1, S40A/T41I/F124A, SEQ ID NO: 38 (Q01234 whole entry S40A/T41I/F124A): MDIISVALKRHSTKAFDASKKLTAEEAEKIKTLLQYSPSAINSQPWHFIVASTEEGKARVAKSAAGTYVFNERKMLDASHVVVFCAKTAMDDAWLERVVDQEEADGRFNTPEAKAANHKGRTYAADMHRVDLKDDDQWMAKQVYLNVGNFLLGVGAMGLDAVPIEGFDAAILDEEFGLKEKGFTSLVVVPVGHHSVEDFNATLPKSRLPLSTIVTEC

AL cells = test: 1H NMR analysis of fermentation broth of anaerobic cultures; assay type: cell-based, Escherichia coli; details: no exogenous substrate
LS5 strain = test: Metabolic complementation (anaerobic growth) of quadruple mutant; assay type: cell-based, Escherichia coli
Description: (§1) The LS1 mutant strain and the parental BW25113 strain were transformed with the desired plasmid and overnight pre-cultures were grown aerobically in 15 mL Falcon tubes with M9 media (0.4% glucose). These pre-cultures were used to inoculate 10 mL Hungate tubes with M9 medium (0.4% glucose) supplemented with 100 μg/mL ampicillin, 1 mM IPTG and with or without the specific substrate of the dehydrogenase under anaerobic conditions at 37° C. Metabolic complementation was assessed by measuring the optical density at 600 nm every two hours during daytime.
Since in the triple mutants the non-deleted transhydrogenase could still be supporting anaerobic growth under anaerobic fermentation conditions when complemented with an NADPH-dependent oxidoreductase by generating oxidized NAD, the inventors generated a quadruple mutant where adhE, ldhA, sthA and pntA genes were deleted (LS5 strain, FIG. 11).

[3] = system: LS1 strain (ΔadhE ΔldhA double mutant) cells; test: Metabolic complementation (anaerobic growth recovery) of LS1/AL strain; assay type: cell-based, Escherichia coli; details: LS1, no exogenous substrate
Description: as §1

[4] = target: Myxococcus stipitatus imine reductase (MsIRED) variant MsIRED-c (best previously described NADH-dependent variant, 5 residue substitutions) (Myxococcus stipitatus, UniProt L7U9F5); test: Kinetics of MsIRED-c (best previously described NADH-dependent variant), 2-methylpyrroline reduction with NADH; assay type: biochemical; details: cofactor NADH (0.25 mM); enzyme 1.2675 uM

Chain of Enterobacter cloacae nitroreductase (EntNFSB) variant EntNFSB-s2, T41L/Y68L/F124L, SEQ ID NO: 40 (Q01234 whole entry T41L/Y68L/F124L): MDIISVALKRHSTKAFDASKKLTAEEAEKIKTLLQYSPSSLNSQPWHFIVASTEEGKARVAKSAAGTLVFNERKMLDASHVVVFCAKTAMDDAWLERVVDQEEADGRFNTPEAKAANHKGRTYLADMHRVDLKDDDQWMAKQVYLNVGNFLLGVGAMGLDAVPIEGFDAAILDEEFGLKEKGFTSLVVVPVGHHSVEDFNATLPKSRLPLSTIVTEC

## O=[N+]([O-])c1ccc(CO)cc1 [4-nitrobenzyl alcohol]
[1]
  Km: 1.11 mM
  kcat: 0.0725 s⁻¹

## O=C(O)c1ccccc1[N+](=O)[O-] [2-nitrobenzoic acid]
[2]
  kcat: 0.0195 s⁻¹

## pLS1: pUC19 with ADH NADH-dependent from Escherichia coli (adhE)
AL cells
  Acetate concentration: 12.1
  Ethanol concentration: 13.8
  Formate concentration: 20.7
  Lactate concentration: 0
  Succinate concentration: 5.2
LS5 strain
  anaerobic growth: anaerobic growth is restored
[3]
  anaerobic growth recovery: restoration of ability to grow anaerobically

## CC1=NCCC1 [2-methylpyrroline, 2-methyl-1-pyrroline]
[4]
  Km: 41.8 mM
  kcat: 1.993 s⁻¹
